Data as given in PMC11947346, “Synthesis and preclinical evaluation of gastrin releasing peptide receptor antagonist [^18F]MeTz-PEG2-RM26 for positron emission tomography” (EJNMMI Radiopharmacy and Chemistry, 2025).

Experiments:
[1] = test system: GRPR-expressing PC-3 xenografts; assay: in vivo; conditions: PC-3 xenografted Balb/c nu/nu mice, 2 h pi, blocked: co-injected with 5 nmol NOTA-PEG2-RM26, mean ± SD, n = 4
Method: (§1) [^18F]MeTz-PEG2-RM26 (8a) (30 kBq, 40 pmol) was evaluated in NMRI mice to assess the biodistribution in normal organs. A group of NMRI mice (n = 3) was additionally co-injected with 5 nmol of NOTA-PEG2-RM26 to block GRPR. Mice were euthanised at 30 min post-injection (pi) and the organs of interest were collected, weighed, and measured for their radioactivity content. Further, Balb/c nu/nu mice (4 mice in each group) were used to evaluate the uptake in normal organs and the GRPR-expressing tumour model (PC-3). In short, 7 × 10^6 freshly harvested PC-3 cells were suspended in 100 µl sterile PBS and were implanted subcutaneously at the right hind leg of each mouse. […] [^18F]MeTz-PEG2-RM26 (8a) (120 kBq, 48 pmol) was injected and mice were euthanised at predetermined time points of 1 and 2 h pi. An additional group was co-injected with 5 nmol of NOTA-PEG2-RM26 to block GRPR and was euthanized at 2 h pi. The collected organs were weighed and the radioactivity content was measured in each organ.

in vivo = conditions: mouse, total radioactivity; for tissue uptake at 1 h / tissue uptake at 2 h / tissue to tissue ratio at 1 h / tissue to tissue ratio at 2 h: Balb/c nu/nu, 48 pmol; for tissue uptake dose at 0.5 h / tissue uptake at 0.5 h: NMRI; for tissue uptake at 0.5 h: NMRI mice, 30 min pi
Method: as §1

NMRI mice = assay: in vivo
Method: as §1

[2] = target: T1, GRPR-expressing PC-3 cells (Homo sapiens, UniProt P30550); assay: In vitro binding to GRPR with and without preblocking of GRPR; assay type: cell-based; conditions: 8–10 nM radioligand, 1 h at 37 °C, preblocking with 1 µM NOTA-PEG2-RM26 for 10 min at rt, n = 3, P < 0.0001
T1 construct: investigated using GRPR-expressing PC-3 cells; endogenous in cells; host or cells: PC-3 cells
T1 sequence (P30550 whole entry): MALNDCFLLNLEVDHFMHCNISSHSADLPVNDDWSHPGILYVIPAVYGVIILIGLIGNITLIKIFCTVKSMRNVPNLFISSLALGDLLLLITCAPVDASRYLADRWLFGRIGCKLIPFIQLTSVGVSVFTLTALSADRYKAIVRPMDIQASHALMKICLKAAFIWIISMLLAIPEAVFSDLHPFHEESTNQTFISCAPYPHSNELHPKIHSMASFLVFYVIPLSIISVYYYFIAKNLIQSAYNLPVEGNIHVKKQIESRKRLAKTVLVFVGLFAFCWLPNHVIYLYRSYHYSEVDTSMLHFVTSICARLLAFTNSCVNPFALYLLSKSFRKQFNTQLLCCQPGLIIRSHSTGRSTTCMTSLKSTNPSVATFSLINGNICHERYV
Method: PC-3 cells (1 × 10^6 cells/well) were seeded on 6-well dishes one day before the experiment. On the day of the experiment, a set of wells was incubated with 1 µM/well of NOTA-PEG2-RM26 for 10 min at rt to block GRPR. After incubation, 8–10 nM (1.2–17.5 kBq) of [^18F]MeTz-PEG2-RM26 (8a) was added to the pretreated and non-treated wells, and the cells were incubated for 1 h at 37 °C. Thereafter, cells were detached using trypsin-EDTA (ethylenediaminetetraacetic acid), collected, and measured for their radioactivity content. The internalisation assay was done after 1 h of incubation as previously described (Varasteh et al. [2013b]).

[3] = Method: [^18F]MeTz-TCO-PEG2-RM26 (8a) (330 pmol, 1.2 MBq) was added and the tube was vortexed for 2 min. The tube was centrifuged for 20 s to separate the phases. Fractions of each phase were collected and the radioactivity content was measured.
GRPR = target: T2, GRPR (Homo sapiens, UniProt P30550); assay: In vitro competitive binding assay against [^125I]I-Tyr^4-BBN; IC50 determination; conditions: PC-3 cells
T2 construct: investigated using GRPR-expressing PC-3 cells; endogenous in cells; host or cells: PC-3 cells
T2 sequence (P30550 whole entry): as above
Method: The half maximal inhibitory concentration (IC50) was determined for F-MeTz-PEG2-RM2 (8b), Ga-loaded NOTA-PEG2-RM26 (Varasteh et al. [2013b], [2015]) conjugate was used as a comparator. […] Briefly, 10^5 cells were incubated the day before. […] After incubation, the cells were collected, and their activity was measured.

[4] = NMRI mice, 30 min pi, 40 pmol (30 kBq), non-blocked, mean ± SD, n = 3–4

## CC1=NNC(c2ccc(CNC(=O)c3ccc(F)nc3)cc2)=C2CCC[C@H](OC(=O)NCCOCCOCCC(=O)N[C@H](Cc3ccccc3)C(=O)N[C@@H](CCC(N)=O)C(=O)N[C@@H](Cc3c[nH]c4ccccc34)C(=O)N[C@@H](C)C(=O)N[C@H](C(=O)NCC(=O)N[C@@H](Cc3c[nH]cn3)C(=O)N[C@@H](CC(C)C)[C@@H](O)CC(=O)N[C@@H](CC(C)C)C(N)=O)C(C)C)CCC12 (stereo partly drawn) [8a]
[1]
  activity uptake in pancreas: 4 ± 1 %IA/g
In vivo; blood
  tissue uptake at 1 h: 2.5 ± 0.4 %ID/g
  tissue uptake at 2 h: 1.8 ± 0.6 %ID/g
In vivo; bone
  tissue uptake at 1 h: 0.8 ± 0.2 %ID/g
  tissue uptake at 2 h: 0.6 ± 0.04 %ID/g
In vivo; kidneys
  tissue uptake at 1 h: 2.4 ± 0.1 %ID/g
  tissue uptake at 2 h: 1.9 ± 0.7 %ID/g
In vivo; liver
  tissue uptake at 1 h: 12 ± 2 %ID/g
  tissue uptake at 2 h: 7 ± 2 %ID/g
In vivo; lungs
  tissue uptake at 1 h: 1.3 ± 0.1 %ID/g
  tissue uptake at 2 h: 1.5 ± 0.8 %ID/g
In vivo; muscle
  tissue uptake at 1 h: 0.33 ± 0.04 %ID/g
  tissue uptake at 2 h: 0.3 ± 0.1 %ID/g
In vivo; pancreas
  tissue uptake at 1 h: 16 ± 1 %ID/g
  tissue uptake at 2 h: 17 ± 4 %ID/g
In vivo; small intestine
  tissue uptake at 1 h: 6 ± 3 %ID/g
  tissue uptake at 2 h: 4 ± 3 %ID/g
In vivo; spleen
  tissue uptake at 1 h: 0.9 ± 0.2 %ID/g
  tissue uptake at 2 h: 0.8 ± 0.6 %ID/g
In vivo; tumour (PC-3 xenograft)
  tissue uptake at 1 h: 2.4 ± 0.1 %ID/g
  tissue uptake at 2 h: 2.7 ± 0.5 %ID/g
In vivo; tumour / blood
  tissue to tissue ratio at 1 h: 0.97 ± 0.1
  tissue to tissue ratio at 2 h: 1.5 ± 0.2
In vivo; tumour / bone
  tissue to tissue ratio at 1 h: 3.2 ± 0.5
  tissue to tissue ratio at 2 h: 5 ± 1
In vivo; tumour / kidneys
  tissue to tissue ratio at 1 h: 0.99 ± 0.08
  tissue to tissue ratio at 2 h: 1.6 ± 0.6
In vivo; tumour / liver
  tissue to tissue ratio at 1 h: 0.2 ± 0.02
  tissue to tissue ratio at 2 h: 0.4 ± 0.1
In vivo; tumour / lungs
  tissue to tissue ratio at 1 h: 1.9 ± 0.1
  tissue to tissue ratio at 2 h: 2.2 ± 1
In vivo; tumour / muscle
  tissue to tissue ratio at 1 h: 7.4 ± 0.7
  tissue to tissue ratio at 2 h: 12 ± 4
In vivo; tumour / pancreas
  tissue to tissue ratio at 1 h: 0.15 ± 0.02
  tissue to tissue ratio at 2 h: 0.17 ± 0.05
In vivo; tumour / small intestine
  tissue to tissue ratio at 1 h: 0.5 ± 0.2
  tissue to tissue ratio at 2 h: 0.7 ± 0.3
In vivo; tumour / spleen
  tissue to tissue ratio at 1 h: 2.6 ± 0.5
  tissue to tissue ratio at 2 h: 4 ± 2
In vivo; tumour
  tissue uptake at 1 h: 2.4 ± 0.1 %ID/g
In vivo; GI tract with content (whole intestine), 40 pmol
  tissue uptake dose at 0.5 h: 38 ± 4 %ID
In vivo; GI tract with content
  tissue uptake dose at 0.5 h: 32 ± 4 %ID
In vivo; blood, 40 pmol, activity uptake in blood, 40 pmol (30 kBq), non-blocked, mean ± SD, n = 3–4
  tissue uptake at 0.5 h: 5 ± 1 %ID/g
In vivo; blood, activity uptake in blood, 40 pmol, blocked: co-injected with 5 nmol NOTA-PEG2-RM26, mean ± SD, n = 3
  tissue uptake at 0.5 h: 4 ± 1 %ID/g
In vivo; bone, 40 pmol, activity uptake in bone, 40 pmol (30 kBq), non-blocked, mean ± SD, n = 3–4
  tissue uptake at 0.5 h: 0.8 ± 0.1 %ID/g
In vivo; bone, activity uptake in bone, 40 pmol, blocked: co-injected with 5 nmol NOTA-PEG2-RM26, mean ± SD, n = 3
  tissue uptake at 0.5 h: 0.7 ± 0.1 %ID/g
In vivo; kidneys, activity uptake in kidneys, 40 pmol, blocked: co-injected with 5 nmol NOTA-PEG2-RM26, mean ± SD, n = 3
  tissue uptake at 0.5 h: 3.1 ± 0.6 %ID/g
In vivo; liver, 40 pmol, activity uptake in liver, 40 pmol (30 kBq), non-blocked, mean ± SD, n = 3–4
  tissue uptake at 0.5 h: 12 ± 0.7 %ID/g
In vivo; liver, activity uptake in liver, 40 pmol, blocked: co-injected with 5 nmol NOTA-PEG2-RM26, mean ± SD, n = 3
  tissue uptake at 0.5 h: 12 ± 2 %ID/g
In vivo; rest of the carcass, 40 pmol
  tissue uptake dose at 0.5 h: 15 ± 2 %ID
In vivo; rest of the carcass
  tissue uptake dose at 0.5 h: 16 ± 4 %ID
In vivo; spleen, 40 pmol, activity uptake in spleen, 40 pmol (30 kBq), non-blocked, mean ± SD, n = 3–4
  tissue uptake at 0.5 h: 1.4 ± 0.1 %ID/g
In vivo; spleen, activity uptake in spleen, 40 pmol, blocked: co-injected with 5 nmol NOTA-PEG2-RM26, mean ± SD, n = 3
  tissue uptake at 0.5 h: 0.9 ± 0.2 %ID/g
In vivo; whole body, 40 pmol
  tissue uptake dose at 0.5 h: 84 ± 7 %ID
NMRI mice; [4]
  activity uptake in bone: 0.8 ± 0.1 %IA/g
  activity uptake in liver: 12.0 ± 0.7 %IA/g
NMRI mice; judged from bone uptake in the biological evaluation in mice
  in vivo defluorination (stability of the fluorine-carbon bond): no significant signs of in vivo defluorination
[2]
  activity uptake upon target saturation (GRPR specificity): statistically significant reduction of activity uptake upon target saturation
[3]
  logP: 1.6 ± 0.2

## CC1=NNC(c2ccc(CNC(=O)c3ccc(F)nc3)cc2)=C2CCC[C@H](OC(=O)NCCOCCOCCC(=O)N[C@H](Cc3ccccc3)C(=O)N[C@@H](CCC(N)=O)C(=O)N[C@@H](Cc3c[nH]c4ccccc34)C(=O)N[C@@H](C)C(=O)N[C@H](C(=O)NCC(=O)N[C@@H](Cc3c[nH]cn3)C(=O)N[C@@H](CC(C)C)[C@@H](O)CC(=O)N[C@@H](CC(C)C)C(N)=O)C(C)C)CCC12 (stereo partly drawn) [8b]
GRPR
  decrease in binding affinity versus Ga-NOTA-PEG2-RM26 (IC50 ratio): 6.8 fold
